SMILES strings stand for the structures. Calls of active or inactive are those of the source. No cut-off for these calls is given here.

Chain of Glycogen synthase kinase-3 beta (P49841 whole entry): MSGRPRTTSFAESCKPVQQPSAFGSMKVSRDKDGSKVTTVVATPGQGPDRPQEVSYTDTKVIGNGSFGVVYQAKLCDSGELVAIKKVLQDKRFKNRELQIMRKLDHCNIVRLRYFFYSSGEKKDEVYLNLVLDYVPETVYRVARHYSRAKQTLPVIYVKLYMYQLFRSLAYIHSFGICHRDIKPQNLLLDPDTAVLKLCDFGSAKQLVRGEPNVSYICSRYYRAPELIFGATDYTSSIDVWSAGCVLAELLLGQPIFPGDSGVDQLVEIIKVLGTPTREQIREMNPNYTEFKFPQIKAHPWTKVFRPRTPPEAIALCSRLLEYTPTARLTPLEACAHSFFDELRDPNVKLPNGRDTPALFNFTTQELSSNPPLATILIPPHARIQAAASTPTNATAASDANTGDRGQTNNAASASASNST

System in one series: not listed separately
The experiment in a line: Ratio of brain to plasma in LaFerla 3xTg-C57BL6 mouse at 30 mg/kg, po. The format is ADME, organism-based. The following applies: brain and plasma, read-out: BPR. Further details: dose 30 mg/kg, route oral.
With `COc1nc(-c2ccnc(NC(=O)C3CC3)c2)sc1C(N)=O`, the Kp is 0.26.

For another series, the system named is Mus musculus. Put plainly: Reduction in pTau396 level in LaFerla 3xTg-C57BL6 mouse at 30 mg/kg, po by ELISA. It counts as functional, organism-based. The arrangement: dose 30 mg/kg.
Conditions: not given
On the technique in general: An ELISA detects its analyte on a solid surface through an enzyme-linked reagent.
On to `COc1nc(-c2ccnc(NC(=O)C3CC3)c2)sc1C(N)=O`, for which the inhibition result is “Active”.

For `O=C1NCCc2cc(-c3ccnc(NC(=O)C4CC4)c3)ccc21`, the inhibition entry is “Active”.

The species named for another series is Homo sapiens. Put plainly: Selectivity ratio for GSK3beta (unknown origin) to CK2A2 (unknown origin).
Conditions: not given
Consider `COc1nc(-c2ccnc(NC(=O)C3CC3)c2)sc1C(N)=O`, for which the Ratio was found to be 10.

As for `COc1sc(-c2ccnc(NC(=O)C3CC3)c2)nc1C(N)=O`, the Ratio was above 67.

The next series concerns the target Glycogen synthase kinase-3 beta (Homo sapiens, UniProt P49841). The experiment in a line: Inhibition of GSK3beta (unknown origin) activity by competitive binding assay.
Conditions: not given
By IC50 is commonly meant the point on the concentration scale where inhibition reaches its midpoint. Read a high IC50 as weaker potency in that assay. The molecule `O=C(Nc1cc(-c2ccc3ccccc3c2)ccn1)C1CC1` had an IC50 of 610 nM.

The molecule `COc1nc(-c2ccnc(NC(=O)C3CC3)c2)sc1C(N)=O` returned an IC50 of 1.1 nM.

With `CC(C)Oc1nc(-c2ccnc(NC(=O)C3CC3)c2)sc1C(N)=O`, the IC50 worked out at 0.45 nM.

For `O=C(Nc1cc(-c2ccc3ncccc3c2)ccn1)C1CC1`, the IC50 worked out at 7.5 nM.

`O=C1NCCc2cc(-c3ccnc(NC(=O)C4CC4)c3)ccc21` returned a 50% inhibitory concentration (IC50) of 2.4 nM.

Regarding `O=C(Nc1cc(-c2ccc3cccnc3c2)ccn1)C1CC1`, the IC50 was 240 nM.

`CC(C)Oc1cc(-c2ccnc(NC(=O)C3CC3)c2)ncc1C(N)=O` gave an IC50 of 4.4 nM.

`NC(=O)c1ccc(-c2ccnc(NC(=O)C3CC3)c2)cn1`: the IC50 amounted to 90 nM.

`COc1nc(-c2ccnc(NC(=O)C3CC3)c2)ncc1C(N)=O`: the concentration for half-maximal inhibition (IC50) amounted to 5.9 nM.

`COc1sc(-c2ccnc(NC(=O)C3CC3)c2)nc1C(N)=O` displayed an IC50 of 30 nM.

The molecule `NC(=O)c1cnc(-c2ccnc(NC(=O)C3CC3)c2)cc1OCC(F)(F)F` had a concentration for half-maximal inhibition (IC50) of 6.8 nM.

Consider `NC(=O)c1cnc(-c2ccnc(NC(=O)C3CC3)c2)cn1`, for which the IC50 came out at 30 nM.

As to `O=C1NCc2cc(-c3ccnc(NC(=O)C4CC4)c3)ccc21`, the IC50 came out at 11 nM. Against the preceding molecule, the IC50 is about 2.7-fold lower.

`O=C1CCCc2cc(-c3ccnc(NC(=O)C4CC4)c3)ccc2N1`: the IC50 is 730 nM.

`O=C1NCCOc2cc(-c3ccnc(NC(=O)C4CC4)c3)ccc21` displayed an IC50 of 4.7 nM.

For the molecule `NC(=O)c1sc(-c2ccnc(NC(=O)C3CC3)c2)nc1OC1CCC1`, the half-maximal inhibitory concentration (IC50) was 0.37 nM.

The molecule `O=C1NCCCc2cc(-c3ccnc(NC(=O)C4CC4)c3)ccc21` had a 50% inhibitory concentration (IC50) of 2.4 nM.

Molecule `CC(C)Oc1nc(-c2ccnc(NC(=O)C3CC3)c2)ncc1C(N)=O` displayed an IC50 of 0.83 nM.

As to `Cc1nc(-c2ccnc(NC(=O)C3CC3)c2)sc1C(N)=O`, the IC50 turned out to be 37 nM.

Molecule `COc1cc(-c2ccnc(NC(=O)C3CC3)c2)ncc1C(N)=O` had an IC50 of 22 nM.

`O=C(Nc1cc(-c2ccc3ccncc3c2)ccn1)C1CC1`: the IC50 is 74 nM. Compared with the last molecule, the IC50 is about 3.4-fold higher.

In turn, `NC(=O)c1cnc(-c2ccnc(NC(=O)C3CC3)c2)s1` displayed a half-inhibitory concentration (IC50) of 13 nM.

Take `NC(=O)c1sc(-c2ccnc(NC(=O)C3CC3)c2)nc1OCC1CC1`: the IC50 was 0.29 nM.

`NC(=O)c1ccc(-c2ccnc(NC(=O)C3CC3)c2)nn1` had a 50% inhibitory concentration (IC50) of 140 nM.

In turn, `Cn1nc(C(N)=O)cc1-c1ccnc(NC(=O)C2CC2)c1` came in with an IC50 of 24 nM.

The molecule `COc1cc(-c2ccnc(NC(=O)C3CC3)c2)cnc1C(N)=O` registered an IC50 of 7 nM.

Source of the values: ChEMBL document CHEMBL3407347, “Discovery of new acylaminopyridines as GSK-3 inhibitors by a structure guided in-depth exploration of chemical space around a pyrrolopyridinone core” (Bioorg Med Chem Lett, 2015).
